Measured values published in the NIST ThermoML archive (doi:10.1021/je800527p).

Assay: mn = molality of the nth substance listed, in mol/kg
Conditions: 101 kPa, Liquid

NCC(=O)N[C@@H](CO)C(=O)NCC(=O)O [glycyl-L-serylglycine] + O
Conditions	mass density [kg/m3]
288.15 K, m1 = 0.03014	1001.82
288.15 K, m1 = 0.03542	1002.28
288.15 K, m1 = 0.04107	1002.79
288.15 K, m1 = 0.04543	1003.18
288.15 K, m1 = 0.05019	1003.61
288.15 K, m1 = 0.05524	1004.05
288.15 K, m1 = 0.06026	1004.51
288.15 K, m1 = 0.06526	1004.95
298.15 K, m1 = 0.025	999.264
298.15 K, m1 = 0.0306	999.768
298.15 K, m1 = 0.03505	1000.16
298.15 K, m1 = 0.04024	1000.61
298.15 K, m1 = 0.04521	1001.05
298.15 K, m1 = 0.05166	1001.62
298.15 K, m1 = 0.05493	1001.9
298.15 K, m1 = 0.0598	1002.34
298.15 K, m1 = 0.06564	1002.84
303.15 K, m1 = 0.02533	997.881
303.15 K, m1 = 0.02992	998.289
303.15 K, m1 = 0.03496	998.733
303.15 K, m1 = 0.0453	999.64
303.15 K, m1 = 0.05003	1000.05
303.15 K, m1 = 0.0555	1000.53
303.15 K, m1 = 0.06095	1001
303.15 K, m1 = 0.06473	1001.34
313.15 K, m1 = 0.02969	994.793
313.15 K, m1 = 0.03329	995.098
313.15 K, m1 = 0.03976	995.655
313.15 K, m1 = 0.04401	996.025
313.15 K, m1 = 0.04969	996.506
313.15 K, m1 = 0.05419	996.891
313.15 K, m1 = 0.05935	997.32
313.15 K, m1 = 0.06498	997.808

NCC(=O)N[C@@H](Cc1ccc(O)cc1)C(=O)NCC(=O)O [glycyl-L-tyrosylglycine] + O
Conditions	mass density [kg/m3]
288.15 K, m1 = 0.01708	1000.85
288.15 K, m1 = 0.01938	1001.08
288.15 K, m1 = 0.02117	1001.26
288.15 K, m1 = 0.023	1001.45
288.15 K, m1 = 0.02384	1001.53
288.15 K, m1 = 0.02504	1001.65
288.15 K, m1 = 0.02575	1001.72
288.15 K, m1 = 0.02705	1001.85
288.15 K, m1 = 0.0279	1001.95
288.15 K, m1 = 0.02909	1002.06
303.15 K, m1 = 0.01685	997.325
303.15 K, m1 = 0.01781	997.42
303.15 K, m1 = 0.019	997.535
303.15 K, m1 = 0.02087	997.719
303.15 K, m1 = 0.02301	997.932
303.15 K, m1 = 0.02396	998.023
303.15 K, m1 = 0.02501	998.127
303.15 K, m1 = 0.02604	998.224
303.15 K, m1 = 0.02701	998.323
303.15 K, m1 = 0.02792	998.415
303.15 K, m1 = 0.02882	998.496
313.15 K, m1 = 0.017	993.889
313.15 K, m1 = 0.01785	993.972
313.15 K, m1 = 0.01889	994.065
313.15 K, m1 = 0.02086	994.259
313.15 K, m1 = 0.0216	994.332
313.15 K, m1 = 0.02288	994.456
313.15 K, m1 = 0.02376	994.546
313.15 K, m1 = 0.02492	994.655
313.15 K, m1 = 0.02586	994.742
313.15 K, m1 = 0.02688	994.842
313.15 K, m1 = 0.02763	994.913
313.15 K, m1 = 0.02902	995.047
